Patent US10501518B2 (priority 2013, dated 2019)
One block for each molecule: values may come before it. Starred links: 1 amine or outer side, 2 acyl side, 3 side chain; linkers in the order of their positions; H or OH if unused. Non-standard residues stand in square brackets, D forms with d. Residues, ends and D or L forms follow the SMILES beside them. *: point of attachment. NH(1S,2S-2-CONH2-cPent) = NC(=O)[C@H]1CCC[C@@H]1N*; X12 = O=C([C@H]1CCC[C@@H]1N[*:1])[*:2]; X13 = O=C([C@H]1CNC[C@@H]1N[*:1])[*:2]; ACPC(1S,2S) = N[C@H]1CCC[C@@H]1C(=O)*; hArg = N=C(N)NCCCC[C@H](N)C(=O)O; Aib = CC(C)(N)C(=O)O

Key:
[1] = mouse, in vivo; cited from earlier work
[2] = Stability in simulated gastric fluid; format: in vitro ADME
[3] = biological target: T1, PTHR (Homo sapiens, UniProt Q03431); assay: cAMP induction potency, N-terminal modifications and cyclic constraints (Tables 9, 10, 13); format: cell-based; conditions: Table 9
T1 construct: expressed in transfected cells
T1 sequence (Q03431 27-593): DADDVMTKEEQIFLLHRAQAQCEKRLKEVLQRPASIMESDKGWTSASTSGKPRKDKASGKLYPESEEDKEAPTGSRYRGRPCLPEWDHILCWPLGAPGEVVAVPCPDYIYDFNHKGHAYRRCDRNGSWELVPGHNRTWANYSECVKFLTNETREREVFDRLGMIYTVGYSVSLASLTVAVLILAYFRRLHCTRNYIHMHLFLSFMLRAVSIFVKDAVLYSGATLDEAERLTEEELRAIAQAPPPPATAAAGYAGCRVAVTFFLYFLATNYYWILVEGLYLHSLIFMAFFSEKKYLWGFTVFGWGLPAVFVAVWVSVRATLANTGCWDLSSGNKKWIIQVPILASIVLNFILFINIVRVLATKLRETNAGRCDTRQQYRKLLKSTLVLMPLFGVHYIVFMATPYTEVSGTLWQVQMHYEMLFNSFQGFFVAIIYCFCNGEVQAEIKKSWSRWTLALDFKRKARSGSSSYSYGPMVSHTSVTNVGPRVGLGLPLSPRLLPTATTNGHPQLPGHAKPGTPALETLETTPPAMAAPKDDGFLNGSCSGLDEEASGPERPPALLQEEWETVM
Description: For cAMP dose-response assays, monolayers of confluent HEK 293 cells were pre-incubated with buffer containing d-luciferin (0.5 mM) in 96 well plates at room temperature until a stable baseline level of luminescence was established (30 min). Varying concentrations of agonist were then added, and the time course of luminescence response was recorded using a Perkin Elmer plate reader following α/β-peptide addition.

[4] = Calcemic response in mice after subcutaneous injection; format: in vivo; conditions: 20 nmol/kg
Description: Compound concentrations were determined by submitting plasma to a cAMP GloSensor assay, quantification of luminescence readout, and conversion to peptide concentration via standard curve. […] See also FIGS. 12A, 12B and 12C.
Mice (C57BL/6, male, age 9-12 weeks) were treated in accordance with the ethical guidelines adopted by Massachusetts General Hospital. […] Blood was withdrawn just prior to injection (t=0) or at times thereafter. Tail vein blood was collected and immediately used for analysis. Blood Ca^2+ concentration was measured with a Chiron Diagnostics model 634 Ca^2+/pH analyzer.

SMILES: CC[C@H](C)[C@H](NC(=O)[C@H](CCC(=O)O)NC(=O)[C@H](C)NC(=O)[C@@H](NC(=O)[C@H](C)N)C(C)C)C(=O)N[C@@H](CCC(N)=O)C(=O)N[C@@H](CC(C)C)C(=O)N[C@@H](CCSC)C(=O)N[C@@H](Cc1cnc[nH]1)C(=O)N[C@@H](CCC(N)=O)C(=O)N[C@@H](CCCCNC(=N)N)C(=O)N[C@@H](C)C(=O)N[C@@H](CCCCN)C(=O)N[C@@H](Cc1c[nH]c2ccccc12)C(=O)N[C@@H](CC(C)C)C(=O)N[C@@H](CC(N)=O)C(=O)N[C@@H](CO)C(=O)N[C@@H](CCSC)C(=O)N[C@@H](CCCNC(=N)N)C(=O)N[C@@H](CCCNC(=N)N)C(=O)N[C@H](C(=O)N[C@@H](CCC(=O)O)C(=O)N[C@@H](Cc1c[nH]c2ccccc12)C(=O)N[C@@H](CC(C)C)C(=O)N[C@@H](CCCNC(=N)N)C(=O)N[C@@H](CCCCN)C(=O)N[C@@H](CCCCN)C(=O)N[C@@H](CC(C)C)C(=O)N[C@@H](CCC(N)=O)C(=O)N[C@@H](CC(=O)O)C(=O)N[C@H](C(=O)N[C@@H](Cc1cnc[nH]1)C(=O)N[C@@H](CC(N)=O)C(=O)N[C@@H](Cc1ccccc1)C(N)=O)C(C)C)C(C)C [M-PTH(1-34)] (H-AVAEIQLMHQ[hArg]AKWLNSMRRVEWLRKKLQDVHNF-NH2)
bioavailability (previously shown) [1]: native-like bioavailability

stability in simulated gastric fluid [2]: good stability
SMILES: CSCC[C@H](NC(=O)[C@H]1CCC[C@@H]1NC(=O)[C@H](CCC(N)=O)NC(=O)[C@H]1CCC[C@@H]1NC(=O)[C@H](CCC(=O)O)NC(=O)C(C)(C)NC(=O)[C@@H](NC(=O)[C@H]1CCC[C@@H]1N)C(C)C)C(=O)N[C@@H](Cc1cnc[nH]1)C(=O)N[C@@H](CCC(N)=O)C(=O)N[C@@H](CCCCNC(=N)N)C(=O)N[C@@H](C)C(=O)N[C@@H](CCCCN)C(=O)N[C@H]1CCC[C@@H]1C(=O)N[C@@H](CC(C)C)C(=O)N[C@@H](CC(N)=O)C(=O)N[C@@H](CO)C(=O)N[C@H]1CCC[C@@H]1C(=O)N[C@@H](CCCNC(=N)N)C(=O)N[C@@H](CCCNC(=N)N)C(=O)N[C@H](C(=O)N[C@H]1CNC[C@@H]1C(=O)N[C@@H](Cc1c[nH]c2ccccc12)C(=O)N[C@@H](CC(C)C)C(=O)N[C@@H](CCCNC(=N)N)C(=O)N[C@H]1CNC[C@@H]1C(=O)N[C@@H](CCCCN)C(=O)N[C@@H](CC(C)C)C(=O)N[C@@H](CCC(N)=O)C(=O)N[C@H]1CCC[C@@H]1C(=O)N[C@H](C(=O)N[C@@H](Cc1cnc[nH]1)C(=O)N[C@@H](CC(N)=O)C(=O)N[C@H]1CCC[C@@H]1C(N)=O)C(C)C)C(C)C [M-X1,5,7-FcycD6, XVUEXQXMHQ^hRAKXLNSXRRVZWLRZKLQXVHNX--NH2] ({ACPC(1S,2S)}-V[Aib]E[X12]Q[X12]MHQ[hArg]AK[X12]LNS[X12]RRV[X13]WLR[X13]KLQ[X12]VHN-{NH(1S,2S-2-CONH2-cPent)})

Fold PTH [3]: 3.2
EC50 ([3]; read-out: EC50, nM (cAMP induction potency)): 0.26 ± 0.05 nM
SMILES: CC[C@H](C)[C@H](NC(=O)[C@H](CCC(=O)O)NC(=O)[C@H](CO)NC(=O)[C@@H](NC(=O)[C@@H](N)CO)C(C)C)C(=O)N[C@@H](CCC(N)=O)C(=O)N[C@@H](CC(C)C)C(=O)N[C@@H](CCSC)C(=O)N[C@@H](Cc1c[nH]cn1)C(=O)N[C@@H](CC(N)=O)C(=O)N[C@@H](CC(C)C)C(=O)NCC(=O)N[C@@H](CCCCN)C(=O)N[C@H]1CCC[C@@H]1C(=O)N[C@@H](CC(C)C)C(=O)N[C@@H](CC(N)=O)C(=O)N[C@@H](CO)C(=O)N[C@H]1CCC[C@@H]1C(=O)N[C@@H](CCC(=O)O)C(=O)N[C@@H](CCCNC(=N)N)C(=O)N[C@H](C(=O)N[C@H]1CNC[C@@H]1C(=O)N[C@@H](Cc1c[nH]c2ccccc12)C(=O)N[C@@H](CC(C)C)C(=O)N[C@@H](CCCNC(=N)N)C(=O)N[C@H]1CNC[C@@H]1C(=O)N[C@@H](CCCCN)C(=O)N[C@@H](CC(C)C)C(=O)N[C@@H](CCC(N)=O)C(=O)N[C@H]1CCC[C@@H]1C(=O)N[C@H](C(=O)N[C@@H](Cc1c[nH]cn1)C(=O)N[C@@H](CC(N)=O)C(=O)N[C@H]1CCC[C@@H]1C(N)=O)C(C)C)C(C)C [FcycD6, SVSEIQLMHNLGKXLNSXERVZWLRZKLQXVHNX-NH2] (H-SVSEIQLMHNLGK[X12]LNS[X12]ERV[X13]WLR[X13]KLQ[X12]VHN-{NH(1S,2S-2-CONH2-cPent)}; N-terminus assumed)
calcemic response (blood Ca^2+ concentration) [4]: very marked activity to increase calcium blood levels
